Experimental data as given in patent US5230998A, “Method for the prescreening of drugs targeted to the V3 hypervariable loop of the HIV-1 envelope glycoprotein gp 120” (priority 1991, dated 1993).

Experiments:
[1] = target: T1, HIV-1 gp120 V3 hypervariable loop (Human immunodeficiency virus type 1 group M subtype B, UniProt P03375); assay: biochemical; assay type: binding; for Inhibitory activity: key: Chemicals with inhibitory activity are indicated by +
T1 construct: Polystyrene plates coated with recombinant gp120 and gp160, respectively; purchased American Bio-Technologies, Inc., Cambridge, Mass; host or cells: baculovirus expression system
Method in brief: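 Inhibition RIA/ELISA: gp120/gp160-coated or synthetic peptide-coated wells (gp120/gp41 of HIV-1 BH10 and V3 loops of 21 isolates) incubated overnight at 25 °C with rabbit anti-peptide antisera (1:150, or 1:1,000 for V3) ± compound (ATA 50 μg/ml). Bound IgG detected with 125I-anti-rabbit IgG; percent inhibition versus no-compound control.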

[2] = target: T2, control peptide (518-542) (Human immunodeficiency virus type 1 BH10, UniProt P03375); assay: Attachment of ATA determined by anti-ATA antibodies (double antibody RIA); assay type: binding, HIV-1; conditions: FIG. 2
T2 construct: cut from Env gp160
Method: Antibodies to ATA were detected by double antibody RIA using wells coated with an ATA-ovalbumin conjugate. This conjugate was prepared in the same way as described for the ATA-BSA conjugate. Dilution endpoints of anti-ATA antibodies, determined as described by Ritchie, D. G., Nickerson, J. M., and Fuller, G. M. (1983), "Two Simple Programs for the Analysis of Data from Enzyme-linked Immunosorbent Assays (ELISA) on a Programmable Desk-top Calculator," Methods in Enzymology, 92, 577-588) of the two antisera were: 1:2,700 and 1:150,000, respectively. The second antiserum was used for subsequent RIA tests.
ATA was also added to a control peptide, (518-542), and to wells coated with gelatin only. After incubation for 4 hours at 20° C., excess ATA was removed, the wells were washed with TS and attached ATA was determined by double-antibody RIA using serial dilutions of the anti-ATA antiserum. Similar tests were carried out with serum from the same rabbit before immunization with the ATA-BSA conjugate; the corresponding results (100-450 cpm) were subtracted from cpm corresponding to RIA results obtained with the anti-ATA antiserum. For additional assays aimed at determining the binding of ATA to synthetic peptides from gp120 and gp41 of HIV-1 BH 10 and to V3 hypervariable loop peptides from 20 additional HIV-1 isolates, anti-ATA antiserum was used at a final dilution of 1:800.

Compound	Inhibitory activity ([1]; Table 1, reaction between HIV-1 gp120 and anti-V3 loop antibodies)	inhibition at 50 µg/mL ([1]; read-out: percentage of inhibition) [%]	extent of inhibition of reaction between gp120 and anti-V3 antibodies versus antibody dilution ([1]; ATA 50 μg/ml, FIG. 3)	inhibition of attachment to gp120 of antibodies against the (303-338) segment ([1]; ATA 50 μg/ml, antisera 1:150, significant inhibition (FIG. 1A)) [%]	binding of ATA to control peptide (anti-ATA antibodies) [2]
C=Cc1c(C)c2cc3nc(c(CC(=O)O)c4[nH]c(cc5nc(cc1[nH]2)C(C)=C5CC)c(C)c4C(=O)O)[C@@H](CCC(=O)O)[C@@H]3C [substance #149, chlorine e6]	+	76.3	–	–	–
O=C(O)C1=CC(=C(c2ccc(O)c(C(=O)O)c2)c2ccc(O)c(C(=O)O)c2)C=CC1=O [substance #122, aurintricarboxylic acid]	–	–	correlated with the dilution of antibodies	≥ 22	not with gelatin or a control peptide (518-542)
